The source made the active and inactive calls. The rule behind the calls is not given here.
What was measured:
[1] = biological target: Mu-type opioid receptor (Rattus norvegicus) (UniProt P33535); assay: Antagonist activity at rat mu opioid receptor expressed in rat C6 cell membranes assessed as inhibition of DAMGO-induced [35S]GTPgammaS binding measured after 1 hr by liquid scintillation counting method; type: functional
[2] = biological target: Mu-type opioid receptor (Rattus norvegicus) (UniProt P33535); details: at 100 nM
[3] = biological target: Kappa-type opioid receptor (Rattus norvegicus) (UniProt P34975); assay: Displacement of [3H]U-69,593 from kappa opioid receptor in rat brain at 100 nM after 60 mins by liquid scintillation counting method relative to control
Mu-type opioid receptor [4] = biological target: T1, Mu-type opioid receptor (Rattus norvegicus, UniProt P33535)
[5] = biological target: Delta-type opioid receptor (Rattus norvegicus) (UniProt P33533); assay: Displacement of [3H]DADLE from delta opioid receptor in rat brain at 100 nM after 60 mins by liquid scintillation counting method relative to control
Mu-type opioid receptor [6] = biological target: T1, Mu-type opioid receptor; assay: Agonist activity at rat mu opioid receptor expressed in rat C6 cell membranes assessed as stimulation of [35S]GTPgammaS binding incubated for 1 hr by liquid scintillation counting method; type: functional
[7] = biological target: Mu-type opioid receptor (Rattus norvegicus) (UniProt P33535); assay: Agonist activity at rat mu opioid receptor expressed in rat C6 cell membranes assessed as stimulation of [35S]GTPgammaS binding incubated for 1 hr by liquid scintillation counting method relative to DAMGO; type: functional
Rattus norvegicus = species: Rattus norvegicus; assay: Selectivity ratio of EC50 for rat delta opioid receptor to EC50 for rat mu opioid receptor
[8] = biological target: T2, Delta-type opioid receptor (Rattus norvegicus, UniProt P33533); assay: Agonist activity at rat delta opioid receptor expressed in rat C6 cell membranes assessed as stimulation of [35S]GTPgammaS binding incubated for 1 hr by liquid scintillation counting method; type: functional
[9] = biological target: T2, Delta-type opioid receptor; assay: Displacement of [3H]DADLE from delta opioid receptor in rat brain after 60 mins by liquid scintillation counting method
[10] = biological target: T3, Kappa-type opioid receptor (Homo sapiens, UniProt P41145); assay: Antagonist activity at human kappa opioid receptor expressed in CHO cell membranes assessed as inhibition of U-69,593-induced [35S]GTPgammaS binding measured after 1 hr by liquid scintillation counting method; type: functional
[11] = biological target: Delta-type opioid receptor (Rattus norvegicus) (UniProt P33533); assay: Agonist activity at rat delta opioid receptor expressed in rat C6 cell membranes assessed as stimulation of [35S]GTPgammaS binding incubated for 1 hr by liquid scintillation counting method relative to DPDPE; type: functional
[12] = biological target: Kappa-type opioid receptor (Rattus norvegicus, UniProt P34975); assay: Displacement of [3H]U-69,593 from kappa opioid receptor in rat brain after 60 mins by liquid scintillation counting method
[13] = biological target: T3, Kappa-type opioid receptor; assay: Agonist activity at human kappa opioid receptor expressed in CHO cell membranes assessed as stimulation of [35S]GTPgammaS binding incubated for 1 hr by liquid scintillation counting method relative to U-69,593; type: functional
[14] = biological target: T3, Kappa-type opioid receptor; assay: Agonist activity at human kappa opioid receptor expressed in CHO cell membranes assessed as stimulation of [35S]GTPgammaS binding incubated for 1 hr by liquid scintillation counting method; type: functional
[15] = Selectivity ratio of EC50 for human kappa opioid receptor expressed in CHO cell membranes to EC50 for rat mu opioid receptor expressed in rat C6 cell membranes; type: cell-based
[16] = biological target: Mu-type opioid receptor (Rattus norvegicus) (UniProt P33535); assay: Antagonist activity at rat brain mu opioid receptor expressed in rat C6 cell membranes assessed as inhibition of DAMGO-induced [35S]GTPgammaS binding at 1 uM after 1 hr by liquid scintillation counting method; type: functional

Sequence of Kappa-type opioid receptor (Rattus norvegicus) (P34975 whole entry): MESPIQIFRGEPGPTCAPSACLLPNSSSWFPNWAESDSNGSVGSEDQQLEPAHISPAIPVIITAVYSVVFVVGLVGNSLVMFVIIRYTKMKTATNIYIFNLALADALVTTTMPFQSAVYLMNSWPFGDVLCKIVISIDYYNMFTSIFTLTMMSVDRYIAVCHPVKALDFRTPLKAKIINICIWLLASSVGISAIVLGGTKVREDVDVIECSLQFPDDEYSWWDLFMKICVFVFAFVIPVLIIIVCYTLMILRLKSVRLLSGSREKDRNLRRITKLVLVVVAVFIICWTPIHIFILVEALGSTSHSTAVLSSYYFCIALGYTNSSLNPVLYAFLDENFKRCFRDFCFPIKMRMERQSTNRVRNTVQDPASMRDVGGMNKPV
Sequence of Delta-type opioid receptor (Rattus norvegicus) (P33533 whole entry): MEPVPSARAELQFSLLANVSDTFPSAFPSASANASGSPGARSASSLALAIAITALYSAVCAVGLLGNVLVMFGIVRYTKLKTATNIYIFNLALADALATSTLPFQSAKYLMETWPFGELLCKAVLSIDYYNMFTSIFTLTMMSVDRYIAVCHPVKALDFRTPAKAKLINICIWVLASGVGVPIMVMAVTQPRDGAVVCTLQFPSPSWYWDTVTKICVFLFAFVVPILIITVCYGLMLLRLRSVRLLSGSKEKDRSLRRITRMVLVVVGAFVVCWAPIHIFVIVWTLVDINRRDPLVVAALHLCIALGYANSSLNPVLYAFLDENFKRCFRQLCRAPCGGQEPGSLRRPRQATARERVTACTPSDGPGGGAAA
T2 sequence (P33533 whole entry): as above
Sequence of Mu-type opioid receptor (Rattus norvegicus) (P33535 whole entry): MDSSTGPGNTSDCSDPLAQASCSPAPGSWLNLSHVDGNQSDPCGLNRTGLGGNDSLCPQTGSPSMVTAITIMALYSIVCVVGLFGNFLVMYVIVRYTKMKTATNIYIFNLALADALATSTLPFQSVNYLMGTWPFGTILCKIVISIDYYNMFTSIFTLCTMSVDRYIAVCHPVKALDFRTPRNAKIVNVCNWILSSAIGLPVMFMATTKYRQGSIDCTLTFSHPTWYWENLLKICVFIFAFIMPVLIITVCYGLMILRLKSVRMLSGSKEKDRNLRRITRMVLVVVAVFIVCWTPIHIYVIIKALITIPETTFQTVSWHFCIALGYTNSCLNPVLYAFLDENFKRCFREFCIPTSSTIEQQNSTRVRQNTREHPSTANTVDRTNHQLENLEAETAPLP
T1 sequence (P33535 whole entry): as above
T3 sequence (P41145 whole entry): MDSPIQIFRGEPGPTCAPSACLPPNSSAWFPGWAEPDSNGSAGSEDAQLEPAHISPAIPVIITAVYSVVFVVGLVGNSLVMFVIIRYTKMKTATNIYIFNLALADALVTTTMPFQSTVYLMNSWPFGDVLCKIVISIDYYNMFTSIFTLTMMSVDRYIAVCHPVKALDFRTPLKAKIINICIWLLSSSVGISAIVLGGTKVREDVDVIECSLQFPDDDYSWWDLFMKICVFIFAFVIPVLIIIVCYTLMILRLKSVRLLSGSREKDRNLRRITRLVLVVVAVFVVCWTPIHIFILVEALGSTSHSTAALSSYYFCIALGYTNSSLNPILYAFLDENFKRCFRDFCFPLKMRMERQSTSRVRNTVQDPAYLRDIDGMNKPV
Sequence of Kappa-type opioid receptor (Rattus norvegicus, UniProt P34975) (P34975 whole entry): as the sequence (P34975 whole entry) above

Structure (SMILES) | inhibition [1] | inhibition [2] [%] | inhibition [3] [%] | Ki (Mu-type opioid receptor [4]) [nM] | inhibition [5] [%] | EC50 (Mu-type opioid receptor [6]) [nM] | Activity [7] [%] | Ratio EC50 (Rattus norvegicus) | EC50 [8] [nM] | Ki [9] [nM] | inhibition [10] | Activity [11] [%] | Ki [12] [nM] | Activity [13] [%] | EC50 [14] [nM] | Ratio EC50 [15] | Ke [16] [nM]
Oc1cccc([C@]23CCC[C@H]([C@@H]2O)N(C[C@H]2C[C@H]2c2ccccc2)CC3)c1 | Active | > 50 | < 50 | 51.8 | < 50 |  |  |  |  |  |  |  |  |  |  |  | 
Oc1cccc([C@]23CCC[C@H]([C@@H]2O)N(C[C@@H]2C[C@@H]2c2ccccc2)CC3)c1 |  | > 50 | < 50 | 11.6 | < 50 | 797 | 22 |  |  |  |  |  |  |  |  |  | 
C=CCN1CC[C@@]2(c3cccc(O)c3)CCC[C@@H]1[C@H]2O |  | > 50 | < 50 | 29.2 | < 50 | 2060 | 67 |  |  |  |  |  |  |  |  |  | 
Oc1cccc([C@]23CCC[C@H]([C@@H]2O)N(C[C@@H]2C[C@H]2c2ccccc2)CC3)c1 | Active | > 50 | < 50 | 44.5 | < 50 |  |  |  |  |  |  |  |  |  |  |  | 
O=[N+]([O-])c1ccc(CCN2CC[C@@]3(c4cccc(O)c4)CCC[C@@H]2[C@H]3O)cc1 |  | > 50 | > 50 | 0.073 | > 50 | 0.74 | 104 | 850 | 630 | 9.81 | Active | 104 | 54.5 |  |  |  | 
C=CCN1C[C@H](C)N([C@H](c2ccc(C(=O)N(CC)CC)cc2)c2cccc(OC)c2)C[C@H]1C |  |  |  |  | > 50 |  |  |  |  |  |  |  |  |  |  |  | 
Oc1cccc([C@]23CCC[C@H]([C@H]2O)N(CCc2ccccc2)CC3)c1 |  | > 50 |  | 0.265 | > 50 | 22 | 120 |  | 1080 | 19.2 |  | 100 |  |  |  |  | 
Oc1cccc(C23CCCC(C2O)N(C/C=C/c2ccccc2)CC3)c1 (single isomer, unassigned) |  | > 50 | < 50 | 0.741 | > 50 | 1.9 | 20 | 133 | 253 | 17.8 |  | 51 |  |  |  |  | 
Oc1cccc([C@]23CCC[C@H]([C@H]2O)N(CCc2ccc(C(F)(F)F)cc2)CC3)c1 |  | > 50 | > 50 | 1.99 | > 50 | 19 | 83 | 47 | 901 | 161 |  | 50 | 29.9 | 18 | 761 | 40 | 
O=[N+]([O-])c1ccc(CCN2CC[C@]3(c4cccc(O)c4)CCC[C@H]2[C@@H]3O)cc1 | Active | > 50 | < 50 | 26.5 | < 50 |  |  |  |  |  |  |  |  |  |  |  | 31.5
Oc1cccc([C@@]23CCC[C@@H]([C@@H]2O)N(CC/C=C/c2ccccc2)CC3)c1 | Active | > 50 | < 50 | 25 | < 50 |  |  |  |  |  |  |  |  |  |  |  | 
CC[C@]12CCN(CC3CC3)[C@H](C(=O)c3ccc(O)cc31)[C@H]2C |  |  |  |  |  |  |  |  |  |  |  |  |  | 93 |  |  | 
CN1CC[C@]23c4c5ccc(O)c4O[C@H]2[C@@H](O)C=C[C@H]3[C@H]1C5 |  | > 50 |  |  |  |  |  |  |  |  |  |  |  |  |  |  | 

Source: ChEMBL document CHEMBL4038276 (Bioorg Med Chem, 2017)
